Assay results reported in US10266482B2, “Long-term memory inducing agent” (NATIONAL UNIVERSITY CORPORATION TOKYO MEDICAL AND DENTAL …, priority 2017, dated 2019).

Tests used:
aged crickets = test: Olfactory associative learning test in aged crickets (age-related memory disorder, training four times); format: in vivo, Gryllus bimaculatus; conditions: 1 μM, 3 μl
Experimental: Male crickets about one week old (young) or three week old (aged) following molting into adult forms were used. Each of the crickets was placed into a 100 ml beaker three days before the experiment, and deprived of water for 2-3 days to enhance the desire of taking water. As the feed, about 10 pieces of insect feed were placed into the beaker. A 1-ml syringe was used for smell and reward associative conditioning upon learning/training. The syringe contained water as the reward while a piece of paper (3 mm×3 mm) perfumed with peppermint essence was pierced into the needle to about 1 cm from the tip thereof. In this learning/training, the filter paper on the needle was brought near the antennae of the cricket to allow it to smell for 3 seconds and then a drop of water was put out from the tip of the needle and applied to the mouth of the cricket. When the associative conditioning was conducted for four times, the conditionings were conducted at intervals of 5 minutes. Smell preference was examined by placing each cricket into a test arena. The arena consisted of a “standby chamber” and a “test chamber”. […] The smell source was a plastic pot containing filter paper perfumed with essence of a smell (peppermint or vanilla) and covered with a gauze lid. In the preference test, each cricket was placed into the test chamber and allowed to walk freely for 4 minutes to search for the two smell sources. Two minutes after the start of the test, a rotary board having the smell sources was rotated to reverse the positions of the vanilla and the peppermint smells. During the test, the time the cricket spent placing its mouth to the gauze of the smell source was measured as a visiting time to the smell source, and the ratio of the visiting times of the two types of smells (PI value: preference index) was calculated according to the following formula to assess the relative preference to the mint smell. PI value=Tp/(Tp+Tv)×100 • Tp: Searching time for smell associated with the reward (peppermint) • Tv: Searching time for smell not associated with the reward (vanilla) If the preferences for the two smells are equivalent, PI will be 50. Since crickets inherently prefer vanilla smell over peppermint smell, an average PI value prior to the learning/training is usually 25-35, The preference test was conducted before and after the learning/training to examine whether preference for the smell changes due to the learning/training. […] Melatonin, 6-HM, kynurenine, kynuramine and 8br-cGMP were purchased from SIGMA Aldrich, AFMK was purchased from Cayman Chemical, AMK was purchased from Toronto Research Chemicals and CHX was purchased from Wako Pure Chemical Industries. The drugs other than 8br-cGMP and CHX were first dissolved in ethanol and then diluted with physiological saline for crickets to the respective concentrations. In the administration experiment, 3 μl was administered using a 10-μl syringe to the brain via an aperture opened through a simple eye of the head. PI values were tested before the training and a day after the training in the same group by a Wilcoxon's-test.

young mice [1] = test: Object recognition test (ORT) with young mice; format: in vivo, ICR mice
Experimental: 8-week-old male ICR mice were purchased. Each of the experiment individuals was raised in an individual cage, and adapted to the raising environment for at least a week before use. The rearing room was kept at 22° C. at cycles of 12 hours of light period/12 hours of dark period, and feed and drinking water were given freely. All of the experiments were conducted during the latter 6 hours of the light period.
N(1)-acetyl-5-methoxykynuramine (AMK) was used as a drug. AMK was diluted with physiological saline. In the administration experiment, a dosage of 0.001 mg-1 mg/3.65 ml/kg bw was intraperitoneally administered.
For an object recognition test, two each of two types of objects (height 6 cm×diameter 4 cm, height 7 cm×diameter 7 cm) and an observation box (height 30 cm×width 40 cm×depth 30 cm) were used. This test consisted of an acquisition trial and a test trial, and the experimental individuals were allowed to explore in the observation box 5 minutes a day for 3 days immediately before the experiment in order to adapt the experimental individuals to the observation box. In the acquisition trial, two identical objects were presented to the observation box and the experimental individuals were allowed to search for a minute. When the acquisition trials were conducted for more than one time, the acquisition trials were conducted at one-hour intervals. The test trial was conducted 24 hours, or 4 or 7 days after the last acquisition trial. In the test trials, one of the two identical objects presented in the acquisition trials was exchanged with a different object (new object), and the experimental individuals were allowed to search for 5 minutes. During the test trials, the time that took each of the mice to search for the object was measured, and the ratio of the searching time of the two objects (DI value:discrimination index) was calculated according to the following formula to examine the relative cognitive levels to the new object. DI value (%)=Tn×100/(Tf+Tn)
The object recognition test was a method of evaluating the learning/memory function that utilizes mice's novelty-seeking behavior.
One-sample t-test was employed to compare the DI value with the expected value (50%). In each experiment, when comparison among individual groups was required, an unpaired t-test was employed for comparing two groups while multiple comparisons including one-way analysis of variance followed by Bonferroni test was conducted for comparing three or more groups.

young mice [2] = test: Object recognition test for young mice (melatonin and melatonin metabolites); format: in vivo, ICR mice; conditions: i.p. 60 minutes after one one-minute acquisition trial, test trial 24 hours later
Experimental: Two-month-old male ICR mice (young mice) were used. The rearing room was kept at 22° C. at cycles of 12 hours of light period/12 hours of dark period, and feed and drinking water were given freely. All of the experiments were conducted during the latter 6 hours of the light period.
Melatonin (MEL), N(1)-acetyl-N(2)-formyl-5-methoxykynuramine (AFMK), and N(1)-acetyl-5-methoxykynuramine (AMK) were used as drugs. Melatonin was purchased from SIGMA Aldrich, AFMK was purchased from Cayman Chemical, and AMK was purchased from Toronto Research Chemicals. AFMK and AMK were diluted with physiological saline and intraperitoneally administered at a dosage of 0.01 mg/kg bw, 0.1 mg/kg bw or 1.0 mg/kg bw. MEL was diluted with physiological saline containing 1 vol % ethanol, and intraperitoneally administered at a dosage of 1.0 mg/kg bw or 5.0 mg/kg bw. As controls, physiological saline or physiological saline containing 1 vol % ethanol was intraperitoneally administered.
Test was conducted in the same manner as “5.3 Object recognition test” in Example 5.
Processing was conducted in the same manner as “5.4 Statistical processing” in Example 5.

young crickets = test: Olfactory associative learning test in young crickets (single-time training, memory a day after); format: in vivo, Gryllus bimaculatus

SMILES: COc1ccc(N)c(C(=O)CCNC(C)=O)c1 [Compound 1, N-[3-(2-amino-5-methoxyphenyl)-3-oxopropyl]-acetamide]
- improvement in an age-related memory disorder (aged crickets; 20 minutes after training for four times): improvement in an age-related memory disorder was observed
- long-term memory formation a day after the training (improvement of age-related memory disorder) (aged crickets; 20 minutes before training for four times): a long-term memory was formed
- long-term memory formation (DI value, test trial 24 hours later) (young mice [1]; 0.001 mg/kg bw i.p. 15 minutes after single-time acquisition trial): a long-term memory was not formed
- long-term memory formation (DI value, test trial 24 hours later) (young mice [1]; 0.01 mg/kg bw i.p. 15 minutes after single-time acquisition trial): long-term memories were formed
- long-term memory formation (DI value, test trial 24 hours later) (young mice [1]; 0.1 mg/kg bw i.p. 15 minutes after single-time acquisition trial): long-term memories were formed
- long-term memory formation (DI value, test trial 24 hours later) (young mice [1]; 1 mg/kg bw i.p. 15 minutes after single-time acquisition trial): long-term memories were formed
- duration of induced long-term memory (young mice [1]; 1 mg/kg bw i.p. 15 minutes after single-time acquisition trial, test trials 1, 4 and 7 days later): at least 7 days
- long-term memory formation (DI value, test trial 24 hours later) (young mice [1]; 1 mg/kg bw i.p., administered from 60 minutes prior to 120 minutes following single-time acquisition trial): a long-term memory was formed
- time of administration after the acquisition trial at which long-term memory was still induced (young mice [1]; 1 mg/kg bw i.p., single-time acquisition trial): at least 120 minutes
- administration amount sufficient to form a long-term memory in terms of human (60 kg) (young mice [1]; converted from 0.01 mg/kg bw in mice): about 0.6 mg
- administration concentration sufficient to form a long-term memory (young mice [1]; i.p. 15 minutes after single-time acquisition trial): 0.01 mg/kg bw
- concentration at which the effect of inducing long-term memories was found (young mice [2]): 0.1 mg/kg bw
- amount in 1 g of the food per kg of body weight (young crickets; based on the results from ingesting 1 μM for 10 μl): ≥ 2.32 µg
- long-term memory formation a day after the training by oral administration (young crickets; drinking 10 μl of aqueous solution (5 μM) 5 minutes after single-time training): long-term memory was formed
